We go through 14 molecules from patent publication US20250082633A1, “COMPOUNDS AND METHODS FOR MODULATING SPLICING” (REMIX THERAPEUTICS INC., priority 2021, published 2025).

SMILES strings stand for the structures. pIC50: −log10 of the molar value. Counter-ions that a name gives are not always drawn. Like-named read-outs stand apart in the source and are kept apart here.

Experiment [1] has as its system HiBiT-tagged HTT protein in K562 cells. Description: HiBit protein abundance assay, HTT. The experiment is classed as cell-based, human. The conditions noted are these: K562 HiBiT-modified cells, 24 hours, luminescence. As to the method: Compounds described herein were used to screen for effects on quantitative protein abundance using a HiBit assay system (Promega). Quantitative protein abundance was determined by measuring the protein levels of HiBit-tagged protein targets expressed in cell culture via luminescence using the Nano-Glo HiBiT Lytic Detection System, which uses a split complementation assay format to reconstitute NanoBiT enzyme to generate a luminescent signal. A protein abundance assay was developed such that endogenous protein targets could be modified with the HiBiT peptide tag and their abundance could be assessed after compound treatment. Briefly, K562 cell lines containing a HiBiT-modification were treated with various compounds described herein (e.g., compounds of Formulas (I), (II), or (III)). After treatment for 24 hours, the protein abundance of a specific target was determined by measuring luminescence. • Promega Nano-Glo HiBiT Lytic Detection System (cat #N3030) • Corning 384-well TC-treated microplates (cat #3570) • Synthego Engineered Cells Knock-In Clones [table] Cells were maintained in IMDM with 10% FBS. Before the assay, cells were diluted with phenolphthalein-free growth media (IMDM+1% FBS media) and were seeded in a 384-well plate at a density of 10000 cells/well (for each cell line listed in Table 6). Each compound was prepared as a 10-point 3-fold serial dilution in DMSO with the top dose at a final concentration of 10 μM in the well. Unmodified K562 cells were added at the previously specified density with DMSO to serve as an assay baseline and positive control (PC) and DMSO only with the respective modified cell lines was added to the negative control (NC) columns. Final DMSO concentration was kept at or below 0.25%. Treated cell plates were placed in an incubator at 37° C. with 5% CO2 for 24 hours. After 24 hours, 25 μL of Complete HiBit Lytic reagent was added to each well at room temperature (e.g. one plate requiring 10 mL Lytic Buffer, 100 μL LgBiT Protein, 200 μL Lytic Substrate), shaken for 5 minutes at 600 RPM, then left to sit for 10 minutes for signal to stabilize before reading on a Spark Cyto plate reader (Tecan) with a 500 ms measurement time. To determine compound effects on protein abundance of each target in Table 6, the percent response for each respective cell line was calculated at each compound concentration as follows: For the normalized response at each concentration, a four-parameter logistical regression was fit to the data and the response was interpolated at the 50% value to determine a concentration for protein abundance at 50% (IC50) the untreated control.

The next experiment concerns HTT mRNA. Description: RT-qPCR splicing assay, HTT canonical (CJ) and alternative (AJ) junction mRNA. It counts as cell-based. The conditions noted are these: Homo sapiens; for pIC50: read-out: HTT CJ IC50; for AC50: read-out: HTT AJ AC50. As to the method:
Compounds described herein were used to modulate RNA transcript abundance in cells. The expression of a target mRNA was measured by detecting the formation of an exon-exon junction in the canonical transcript (CJ). A compound mediated exon-inclusion event was detected by observing an increase in formation of a new junction with an alternative exon (AJ). Real-time qPCR assays were used to detect these splicing switches and interrogate the potency of various compounds towards different target genes. A high-throughput real time quantitative PCR (RT-qPCR) assay was developed to measure these two isoforms of the mRNA (CJ and AJ) for exemplary genes, such as HTT, SMN2, and MYB, together with a control housekeeping gene, GAPDH or GUSB or PPIA, used for normalization. Briefly, the A673 or K562 cell line was treated with various compounds described herein (e.g., compounds of Formula (I)). After treatment, the levels of the HTT, MYB, or SMN2 mRNA targets were determined from each sample of cell lysate by cDNA synthesis followed by qPCR.
• Cells-to-CT 1-step kit: ThermoFisher A25602, Cells-to-CT lysis reagent: ThermoFisher 4391851C, TaqMan™ Fast Virus 1-Step Master Mix: ThermoFisher 4444436 • GAPDH: VIC-PL, ThermoFisher 4326317E (Assay: Hs99999905_m1)—used for K562/suspension cell lines • GUSB: VIC-PL, ThermoFisher 4326320E (Assay: Hs99999908_m1)—used for K562/suspension cell lines • PPIA: VIC-PL, ThermoFisher 4326316E (Assay: Hs99999904_m1)—used for A673/adherent cell lines
The A673 cell line was cultured in DMEM with 10% FBS. Cells were diluted with full growth media and plated in a 96-well plate (15,000 cells in 100 ul media per well). The plate was incubated at 37° C. with 5% CO2 for 24 hours to allow cells to adhere. An 11-point 3-fold serial dilution of the compounds was made in DMSO then diluted in media in an intermediate plate. Compounds were transferred from the intermediate plate to the cell plate with the top dose at a final concentration of 10 uM in the well. Final DMSO concentration was kept at or below 0.25%. The cell plate was returned to the incubator at 37° C. with 5% CO2 for an additional 24 hours.
The K562 cell line was cultured in IMDM with 10% FBS. For K562, cells were diluted with full growth media and plated in either a 96-well plate (50,000 cells in 50 uL media per well) or a 384-well plate (8,000-40,000 cells in 45 uL media per well). An 11-point 3-fold serial dilution of the compounds were made in DMSO then diluted in media in an intermediate plate. Compound was transferred from the intermediate plate to the cell plate with the top dose at a final concentration of 10 uM in the well. Final DMSO concentration was kept at or below 0.25%. Final volume was 100 uL for 96-well plate and 50 uL for 384-well plate. The cell plate was then placed in an incubator at 37° C. with 5% CO2 for 24 hours.
The cells were then gently washed with 50 uL-100 uL cold PBS before proceeding to addition of lysis buffer. 30 uL-50 μL of room temperature lysis buffer with DNAse I (and optionally RNAsin) was added to each well. Cells were shaken/mixed thoroughly at room temperature for 5-10 minutes for lysis to take place and then 3 uL-5 μL of room temperature stop solution was added and wells were shaken/mixed again. After 2-5 minutes, the cell lysate plate was transferred to ice for RT-qPCR reaction setup. The lysates could also be frozen at −80° C. for later use.
In some cases, a direct lysis buffer was used. An appropriate volume of 3× lysis buffer (10 mM Tris, 150 mM NaCl, 1.5%-2.5% Igepal and 0.1-1 U/uL RNAsin, pH 7.4) was directly added to either K562 or A673 cells in media and mixed by pipetting 3 times. The plates were then incubated at room temperature with shaking/rocking for 20-50 minutes to allow for lysis to take place. After this time, the cell lysate plate was transferred to ice to set up for the RT-qPCR reactions. The lysates could also be frozen at −80° C. for later use. […]
For orientation: In qPCR the cycle at which signal appears reflects the starting amount.

[2] abbreviates: decrease in CJ mRNA levels, larger panel of genes, Table 3.
Setting [3] is: decrease in canonical junction mRNA, A673 or K562 cells, 24 hours treatment, Table 2.
[4] abbreviates: increase in alternative junction mRNA, A673 or K562 cells, 24 hours treatment, Table 2.

With `Cc1cn2nc(-c3cc4cn(C5CCNCC5)nc4cn3)cc(C)c2n1` [Compound 147, 2,8-dimethyl-6-[2-(4-piperidyl)pyrazolo[3,4-c]pyridin-5-yl]imidazo[1,2-b]pyridazine], the pIC50 (in experiment [1]; in the experiment on HTT mRNA (setting [2]); with HTT mRNA (setting [3])) was 6.00 to 7.00 throughout. In the experiment with HTT mRNA (setting [4]), the concentration at half-maximal activity (AC50) (as a rule, the concentration at which the activity in the assay is half-maximal) was in the range of 0.1 to 1 µM.
Turning to `Cn1cc2cc(-c3ccc4nn(C5CCNCC5)cc4n3)c(O)cc2n1` [Compound 110, 2-methyl-5-[2-(4-piperidyl)pyrazolo[4,3-b]pyridin-5-yl]indazol-6-ol], the negative-log IC50 (pIC50) (in experiment [1]; in the experiment on HTT mRNA (setting [2]); in the experiment on HTT mRNA (setting [3])) was 6.00 to 7.00 each time. Also, in the experiment on HTT mRNA (setting [4]), the concentration at half-maximal activity (AC50) lay within 1 to 10 µM.
Take `Cc1cn2nc(-c3cc(F)c4nn(C5CCNCC5)cc4c3)cc(C)c2n1` [Compound 122, 6-(7-fluoro-2-(piperidin-4-yl)-2H-indazol-5-yl)-2,8-dimethylimidazo [1,2-b]pyridazine hydrochloride salt]: the negative-log IC50 (pIC50) (in experiment [1]; in the experiment with HTT mRNA (24 h); in the experiment on HTT mRNA) was more than 7.00 in each case. Further, in the experiment on HTT mRNA (24 h), the concentration at half-maximal activity (AC50) is less than 0.1 µM.
Consider `Cc1nc2c(F)cc(-c3cc(F)c4nn(C5CCNCC5)cc4c3)cc2o1` [Compound 136, 4-fluoro-6-[7-fluoro-2-(4-piperidyl)indazol-5-yl]-2-methyl-1,3-benzoxazole], for which the pIC50 (in experiment [1]; with HTT mRNA (setting [2]); in the experiment on HTT mRNA (setting [3])) was more than 7.00 each time. Also, the half-maximal activity concentration (AC50) with HTT mRNA (setting [4]) is less than 0.1 µM.
For `Cn1cc2cc(-c3cc(F)c4nn(C5CCNCC5)cc4c3)ccc2n1` [Compound 145, 7-fluoro-5-(2-methylindazol-5-yl)-2-(4-piperidyl)indazole], the negative-log IC50 (pIC50) (in experiment [1]; in the experiment on HTT mRNA (setting [2]); in the experiment on HTT mRNA (setting [3])) was 6.00 to 7.00 each time. In the experiment on HTT mRNA (setting [4]), the concentration at half-maximal activity (AC50) lay within 0.1 to 1 µM.
Regarding `Cc1cn2nc(-c3cc(F)c4nn(C5CCN(CCO)CC5)cc4c3)cc(C)c2n1` [Compound 160, 2-[4-[5-(2,8-dimethylimidazo[1,2-b]pyridazin-6-yl)-7-fluoro-indazol-2-yl]-1-piperidyl]ethanol], the negative logarithm of the IC50 (pIC50) (in experiment [1]; with HTT mRNA (24 h); with HTT mRNA) was more than 7.00 throughout. In addition, the AC50 in the experiment on HTT mRNA (24 h) is less than 0.1 µM.
Consider `Cc1cc(-n2cc3cc(N4CCNCC4)cc(F)c3n2)cc2cn(C)nc12` [Compound 117, 2-(2,7-dimethylindazol-5-yl)-7-fluoro-5-piperazin-1-yl-indazole], for which the negative-log IC50 (pIC50) (as a rule, the negative decadic logarithm of the IC50, by convention in mol/L) in experiment [1] is 5.00 to 6.00; in the experiment with HTT mRNA (setting [2]), less than 5.00; in the experiment on HTT mRNA (setting [3]) it was less than 5.00. Moreover, the concentration at half-maximal activity (AC50) in the experiment on HTT mRNA (setting [4]) was in the range of 1 to 10 µM.
As to `Cc1cn2cc(-c3cc(F)c4nn(C5CCNCC5)cc4c3)cc(Cl)c2n1` [Compound 127, 5-(8-chloro-2-methylimidazo[1,2-a]pyridin-6-yl)-7-fluoro-2-(piperidin-4-yl)-2H-indazole hydrochloride salt], the negative logarithm of the IC50 (pIC50) (in experiment [1]; with HTT mRNA (setting [2]); in the experiment on HTT mRNA (setting [3])) was more than 7.00 each time. Also, the AC50 in the experiment on HTT mRNA (setting [4]) is 0.1 to 1 µM.
`CCN1CCC(n2cc3cc(-c4cc(C)c5nc(C)cn5n4)cc(F)c3n2)CC12CC2` (stereo not shown) [Compound 177, 6-[2-(4-ethyl-4-azaspiro[2.5]octan-7-yl)-7-fluoro-indazol-5-yl]-2,8-dimethyl-imidazo[1,2-b]pyridazine]: the negative logarithm of the IC50 (pIC50) (in experiment [1]; in the experiment with HTT mRNA (setting [2]); in the experiment on HTT mRNA (setting [3])) was more than 7.00 each time. In addition, in the experiment on HTT mRNA (setting [4]), the concentration at half-maximal activity (AC50) was less than 0.1 µM.
As for `Cc1nc2ccc(-c3cc(F)c4nn(C5CCNCC5)cc4c3)cc2s1` [Compound 134, 6-(7-fluoro-2-(piperidin-4-yl)-2H-indazol-5-yl)-2-methylbenzo[d]thiazole], the pIC50 (in experiment [1]; with HTT mRNA (setting [2]); with HTT mRNA (setting [3])) was 5.00 to 6.00 throughout. In addition, the AC50 in the experiment on HTT mRNA (setting [4]) is more than 10 µM.
As for `Fc1cc(-c2ccc3ccncc3c2)cc2cn(C3CCNCC3)nc12` [Compound 158, 7-[7-fluoro-2-(4-piperidyl)indazol-5-yl]isoquinoline], the results for the negative-log IC50 (pIC50) (in experiment [1]; in the experiment with HTT mRNA (setting [2]); with HTT mRNA (setting [3])) were 5.00 to 6.00, less than 5.00 and less than 5.00, respectively. Also, the concentration at half-maximal activity (AC50) in the experiment on HTT mRNA (setting [4]) is more than 10 µM.
Regarding `Cc1cn2nc(-c3cc(F)c4nn(C5CCNCC5)cc4c3)cc2c(C)n1` [Compound 124, 2-[7-fluoro-2-(4-piperidyl)indazol-5-yl]-4,6-dimethyl-pyrazolo[1,5-a]pyrazine], the pIC50 (in experiment [1]; with HTT mRNA (setting [2]); in the experiment with HTT mRNA (setting [3])) was more than 7.00 in each case. The AC50 with HTT mRNA (setting [4]) was less than 0.1 µM.
Take `Cc1cn2nc(-c3ccc4nn(C5CCNCC5)cc4c3)cc(C)c2n1` [Compound 192, 2,8-dimethyl-6-[2-(4-piperidyl)indazol-5-yl]imidazo[1,2-b]pyridazine]: the negative-log IC50 (pIC50) (in experiment [1]; in the experiment on HTT mRNA (setting [2]); in the experiment on HTT mRNA (setting [3])) was more than 7.00 throughout. In the experiment with HTT mRNA (setting [4]), the AC50 was 0.1 to 1 µM.
Turning to `Cc1cn2nc(-c3cc(F)c4nn(CC5CCNCC5)cc4c3)cc(C)c2n1` [Compound 212, 6-[7-fluoro-2-(4-piperidylmethyl)indazol-5-yl]-2,8-dimethyl-imidazo[1,2-b]pyridazine], the pIC50 in the experiment with HTT mRNA (setting [2]) and in the experiment with HTT mRNA (setting [3]) was more than 7.00 throughout. The half-maximal activity concentration (AC50) in the experiment with HTT mRNA (setting [4]) is less than 0.1 µM.
